Assay results from the Bradley open melting point set (2014).
Values joined by “and” are separate entries in the source; they are usually repeats but may differ in a detail not shown here. Equal entries are not always repeated.

melting point	SMILES
54.5 °C	OCC(c1ccccc1)c1ccccc1 [2,2-Diphenylethanol]
2 °C	CC(Br)C(C)(Br)Br (centres undefined) [2,3,3-tribromobutane]
253 °C	OB(O)c1c(F)c(F)c(F)c(F)c1F [2,3,4,5,6-pentafluorobenzeneboronic acid]
38 °C	O=C(c1ccccc1)c1c(F)c(F)c(F)c(F)c1F [2,3,4,5,6-pentafluorobenzophenone]
63 °C	O=S(=O)(Cl)c1ccc(Cl)c(Cl)c1Cl [2,3,4-trichlorobenzenesulfonyl chloride]
161 °C	O=Cc1ccc(O)c(O)c1O [2,3,4-trihydroxybenzaldehyde]
77 °C	COc1ccc(B(O)O)c(OC)c1OC [2,3,4-trimethoxybenzeneboronic acid]
-109 °C	CC(C)C(C)C(C)C [2,3,4-trimethylpentane]
152 °C	O=C(O)CCc1c(F)c(F)nc(F)c1F [2,3,5,6-tetrafluoropyridine-4-propionic acid]
120 °C	O=C(O)c1cc(F)nc(F)c1F [2,3,6-trifluoropyridine-4-carboxylic acid]
-128 °C	CC(C)C(C)C [2,3-Dimethylbutane]
197 °C	O=C(O)C(S)C(S)C(=O)O (centres undefined) [2,3-Disulfanylsuccinic acid]
114 °C	O=S(=O)(Nc1cccc(Cl)c1Cl)c1ccccc1 [2,3-dichloro-1-phenylsulfonamidobenzene]
167 °C	NC(=O)c1cccc(Cl)c1Cl [2,3-dichlorobenzamide]
97 °C	Cc1c(C)n(C#N)c2ccccc12 [2,3-dimethyl-1H-indole-1-carbonitrile]
188 °C	Cc1c(C)n(C(N)=O)c2ccccc12 [2,3-dimethyl-1H-indole-1-carboxamide]
29 °C	COc1cccc(C)c1C [2,3-dimethylanisole]
175 °C	Cc1cccc(B(O)O)c1C [2,3-dimethylbenzeneboronic acid]
-129 °C	CC(C)C(C)C [2,3-dimethylbutane]
263 °C	Cc1c(C)c(C#N)c2ccccc2c1C#N [2,3-dimethylnaphthalene-1,4-dicarbonitrile]
75 °C and 72.5 °C	Cc1cccc(O)c1C [2,3-dimethylphenol] [listing 1 of 2 here]
72 °C	Cc1cccc(O)c1C [2,3-dimethylphenol] [listing 2 of 2 here]
-12 °C	Cc1nccnc1C [2,3-dimethylpyrazine]

melting point	SMILES
47 °C	CC1(C)O[C@@H](CO)[C@H](CO)O1 [2,3-o-isopropylidene-l-threitol]
23 °C	O=C(c1ccc(F)cc1)c1ccccc1F [2,4'-difluorobenzophenone]
-94 °C	C=C(C)CC(C)(C)C [2,4,4-Trimethylpent-1-ene]
-93 °C	C=C(C)CC(C)(C)C [2,4,4-trimethyl-1-pentene]
79 °C	N#Cc1c(F)c(F)c(F)c(C#N)c1F [2,4,5,6-Tetrafluoroisophthalonitrile]
235 °C	OB(O)c1c(F)cc(F)cc1F [2,4,6-trifluorobenzeneboronic acid]
124 °C	Cc1cc(C)c(B(O)O)c(C)c1 [2,4,6-trimethylbenzeneboronic acid]
45 °C	Cc1cc(C)c(N=C=O)c(C)c1 [2,4,6-trimethylphenyl isocyanate]
136 °C	O=Cc1ccc(O)cc1O [2,4-Dihydroxybenzaldehyde]
226 °C	O=C(O)c1ccc(O)cc1O [2,4-Dihydroxybenzoic Acid]
137 °C	CCOC(=O)C1=C(C)C(C(=O)OCC)N=C1C (centres undefined) [2,4-Dimethyl-3,5-dicarbethoxypyrrole]
160 °C	O=[N+]([O-])c1ccc(Nc2ccccc2)c([N+](=O)[O-])c1 [2,4-Dinitro-N-phenylaniline]
244 °C	OB(O)c1ccc(Cl)cc1Cl [2,4-dichlorobenzeneboronic acid]
162 °C	O=C(O)c1ccc(Cl)cc1Cl [2,4-dichlorobenzoic acid]
10 °C	O=[N+]([O-])c1ccc(F)cc1F [2,4-difluoro-1-nitrobenzene]
249 °C	OB(O)c1ccc(F)cc1F [2,4-difluorobenzeneboronic acid]
136 °C	O=Cc1ccc(O)cc1O [2,4-dihydroxybenzaldehyde]
35 °C	COc1ccc(N)c(OC)c1 [2,4-dimethoxyaniline]
107 °C	COc1ccc(C=NO)c(OC)c1 [2,4-dimethoxybenzaldoxime]
118 °C	COc1ccc(B(O)O)c(OC)c1 [2,4-dimethoxybenzeneboronic acid]
-23 °C	CC(=O)CC(C)=O [2,4-pentanedione]
218 °C	CC(C)(C)c1cc(O)c(C(C)(C)C)cc1O [2,5-Di-tert-butylbenzene-1,4-diol]

SMILES	melting point
O=C(c1ccccc1)C(Cl)Cl [2,2-dichloroacetophenone]	21 °C
O=[N+]([O-])c1c(Cl)c(Cl)cc(Cl)c1Cl [2,3,5,6-Tetrachloronitrobenzene]	99.5 °C
O=C(O)c1cc(I)cc(I)c1I [2,3,5-triiodobenzoic acid]	221 °C
c1ccc2c(c1)Cc1cc3ccccc3cc1-2 [2,3-Benzofluorene Benzo[b]fluorene]	210 °C
c1ccc2c(c1)Cc1cc3ccccc3cc1-2 [2,3-benzofluorene]	210 °C
Cc1cccc(N)c1N [2,3-diaminotoluene]	58 °C
O=[N+]([O-])c1cccc(Cl)c1Cl [2,3-dichloronitrobenzene]	62 °C
Oc1cccc(Cl)c1Cl [2,3-dichlorophenol]	59 °C
COc1cccc(/C=C/[N+](=O)[O-])c1OC [2,3-dimethoxy-beta-nitrostyrene]	81 °C
COc1cccc(C=O)c1OC [2,3-dimethoxybenzaldehyde]	52 °C
Cc1cc(Cl)c(Cl)cc1Cl [2,4,5-Trichlorotoluene]	82.4 °C
Oc1cc(Cl)c(Cl)cc1Cl [2,4,5-trichlorophenol]	69 °C and 67 °C and 68 °C
COc1cc(OC)c(OC)cc1C=O [2,4,5-trimethoxybenzaldehyde]	114 °C
Clc1nc(Cl)nc(Cl)n1 [2,4,6-Trichloro-1,3,5-triazine]	146 °C
Oc1c(Br)cc(Br)cc1Br [2,4,6-tribromophenol]	89 °C
Oc1ccc(Cl)cc1Cl [2,4-Dichlorophenol]	42.5 °C
Cc1ccc([N+](=O)[O-])c(C)c1 [2,4-Dimethyl-1-nitrobenzene]	7 °C
Cc1ccc(N)c(C)c1 [2,4-Dimethylaniline]	16 °C
O=Cc1ccc(Cl)cc1Cl [2,4-dichlorobenzaldehyde]	73 °C
COc1ccc(/C=C/[N+](=O)[O-])c(OC)c1 [2,4-dimethoxy-beta-nitrostyrene]	100 °C
Cc1ccc(O)c(C)c1 [2,4-dimethylphenol]	27 °C
O=Cc1ccc([N+](=O)[O-])cc1[N+](=O)[O-] [2,4-dinitrobenzaldehyde] [listing 1 of 2 here]	66 °C
O=Cc1ccc([N+](=O)[O-])cc1[N+](=O)[O-] [2,4-dinitrobenzaldehyde] [listing 2 of 2 here]	67 °C
O=C1C=C(Cl)C(=O)C=C1Cl [2,5-Dichloro-1,4-benzoquinone]	162 °C
